The values below come from patent US20090239846A1, “Novel Compounds” (Glaxo Group Limited, priority 2005, published 2009).

The test system of series [1] is influx of neutrophils to the lung in LPS-challenged rats. In words: Rat LPS neutrophilia model. The series is classed as in vivo. Particulars: LPS aerosol, lavage 4 hours later, in at least one of the range of conditions tested, significance p<0.05; call rule not given here. The procedure, abridged:
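Rats pretreated 15 min–24 h with compound or vehicle, given intratracheally (200 ul, isoflurane anaesthesia) as suspension in various vehicles, then exposed to LPS aerosol (100 ug/ml) 15 min. BAL 4 h later; Diffquick-stained differential counts give % inhibition of neutrophils versus no-compound controls at a set concentration and pretreatment time.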

A further series has as its target T1, Recombinant human p38α (Homo sapiens, UniProt Q16539).
T1 construct: GST; made in house
In words: Fluorescence anisotropy kinase binding assay (standard or low volume). To be noted: 12 nM p38α, 5 nM fluorescent ligand. The procedure, abridged: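 Activated GST-tagged recombinant human p38α (pre-activated with MBP-MKK6 DD) at 12 nM final with 5 nM rhodamine green-labelled pyridinylimidazole tracer in pH 7.5 HEPES/CHAPS/DTT/MgCl2 buffer. Test compound 0.28 nM–16.6 μM or 0.02 nM–25 μM final, 3% or 1.7% DMSO; 30–60 min at room temperature. Fluorescence anisotropy read (ex 485/em 535 nm) for Ki.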
For orientation: Fluorescence polarisation rises when a labelled molecule tumbles more slowly, as on binding a larger partner.

Series [2] concerns IL-8 production by human neutrophils. The series is described as follows: TNF-stimulated IL-8 production from human neutrophils. The series is classed as cell-based. Particulars: Neutrophil, bound, read-out: IC50.

Like-named read-outs stand apart in the source and are kept apart here.

T1 sequence (Q16539 whole entry): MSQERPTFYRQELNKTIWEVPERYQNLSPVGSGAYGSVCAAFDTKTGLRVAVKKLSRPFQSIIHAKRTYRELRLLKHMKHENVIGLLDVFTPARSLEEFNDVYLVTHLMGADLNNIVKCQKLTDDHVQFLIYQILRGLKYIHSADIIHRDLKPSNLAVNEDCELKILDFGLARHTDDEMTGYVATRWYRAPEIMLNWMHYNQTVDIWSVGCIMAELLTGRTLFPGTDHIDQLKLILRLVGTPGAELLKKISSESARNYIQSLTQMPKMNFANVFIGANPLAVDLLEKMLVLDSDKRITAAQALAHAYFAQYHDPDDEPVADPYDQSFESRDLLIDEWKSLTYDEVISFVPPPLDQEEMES

Turning to `CNC(=O)c1ccc(C)c(-c2nc(N3CCN(C)CC3)nc3c2CNC(=O)N3c2c(F)cccc2F)c1` [Example 169, 3-[8-(2,6-difluorophenyl)-2-(4-methyl-1-piperazinyl)-7-oxo-5,6,7,8-tetrahydropyrimido[4,5-d]pyrimidin-4-yl]-N,4-dimethylbenzamide], the melting point is 164 to 168 °C (dec.).

`Cc1ccc(C(=O)Nc2ccc(C)c(-c3nc(N4CCC(N)CC4)nc4c3CNC(=O)N4c3c(F)cccc3F)c2)cc1F` [Example 24, N-{3-[2-(4-amino-1-piperidinyl)-8-(2,6-difluorophenyl)-7-oxo-5,6,7,8-tetrahydropyrimido[4,5-d]pyrimidin-4-yl]-4-methylphenyl}-3-fluoro-4-methylbenzamide] displayed a melting point of 240 °C. Further, the inhibition of neutrophilia entry in series [1] is reported as “statistically nonsignificant inhibition of neutrophilia”.

In turn, `Cc1ccc(NC(=O)c2ccsc2)cc1-c1nc(N(C)C)nc2c1CNC(=O)N2c1c(F)cccc1F` [Example 12, N-{3-[8-(2,6-difluorophenyl)-2-(dimethylamino)-7-oxo-5,6,7,8-tetrahydropyrimido[4,5-d]pyrimidin-4-yl]-4-methylphenyl}-3-thiophenecarboxamide] displayed a melting point of 214 to 215 °C.

In the case of `Cc1ccc(C(=O)NCc2ccccc2)cc1-c1nc(NC2CCNCC2)nc2c1CNC(=O)N2c1c(F)cccc1F` [21(b), 3-[8-(2,6-Difluorophenyl)-7-oxo-2-(4-piperidinylamino)-5,6,7,8-tetrahydropyrimido[4,5-d]pyrimidin-4-yl]-4-methyl-N-(phenylmethyl)benzamide], the melting point is 172 to 176 °C (dec.). Moreover, on Recombinant human p38α, the “active in the assay (pIC50, p38α binding)” value (from here on “active in the assay”) was “active”.

For `Cc1ccc(C(=O)NC(C)C)cc1-c1nc(N2CCC(N3CCN(C)CC3)CC2)nc2c1CNC(=O)N2c1c(F)cccc1F` [Example 72, 3-{8-(2,6-difluorophenyl)-2-[4-(4-methyl-1-piperazinyl)-1-piperidinyl]-7-oxo-5,6,7,8-tetrahydropyrimido[4,5-d]pyrimidin-4-yl}-4-methyl-N-(1-methylethyl)benzamide], the half-maximal inhibitory concentration (IC50) in series [2] (screened at a different top concentration) was greater than 1 nM. In series [1], the inhibition of neutrophilia result is reported as “statistically significant inhibition of neutrophilia”.

As for `CCOc1nc(-c2cc(NC(=O)c3ccc(C)c(F)c3)ccc2C)c2c(n1)N(c1c(F)cccc1F)C(=O)NC2` [Example 25], the melting point lay within 257.3 to 262.5 °C.

Take `CNC(=O)c1ccc(C)c(-c2nc(NC3CCN(C)CC3)nc3c2CNC(=O)N3c2c(F)cccc2F)c1` [Example 173, 3-{8-(2,6-difluorophenyl)-2-[(1-methyl-4-piperidinyl)amino]-7-oxo-5,6,7,8-tetrahydropyrimido[4,5-d]pyrimidin-4-yl}-N,4-dimethylbenzamide]: the melting point is 205 to 209 °C (dec.).

`CNCCNc1nc(-c2cc(C(=O)NCc3ccccc3)ccc2C)c2c(n1)N(c1c(F)cccc1F)C(=O)NC2` [19(b), 3-(8-(2,6-Difluorophenyl)-2-{[2-(methylamino)ethyl]amino}-7-oxo-5,6,7,8-tetrahydropyrimido[4,5-d]pyrimidin-4-yl)-4-methyl-N-(phenylmethyl)benzamide] returned a melting point of 157 to 161 °C. Besides, on Recombinant human p38α, the “active in the assay” value is on record as “active”.

Regarding `CNC(=O)c1ccc(C)c(-c2nc(NCCCNC(C)(C)C)nc3c2CNC(=O)N3c2c(F)cccc2F)c1` [Example 170, 3-[8-(2,6-difluorophenyl)-2-({3-[(1,1-dimethylethyl)amino]propyl}amino)-7-oxo-5,6,7,8-tetrahydropyrimido[4,5-d]pyrimidin-4-yl]-N,4-dimethylbenzamide], the melting point is 166 to 170 °C (dec.).

Take `CNC(=O)c1ccc(C)c(-c2nc(NCCNC(C)C)nc3c2CNC(=O)N3c2c(F)cccc2F)c1` [Example 167, 3-[8-(2,6-difluorophenyl)-2-({2-[(1-methylethyl)amino]ethyl}amino)-7-oxo-5,6,7,8-tetrahydropyrimido[4,5-d]-pyrimidin-4-yl]-N,4-dimethylbenzamide]: the melting point is 136 to 139 °C (dec.).

As for `Cc1ccc(C(=O)NCc2ccccc2)cc1-c1nc(N2CCC(N(C)C(=O)OC(C)(C)C)CC2)nc2c1CNC(=O)N2c1c(F)cccc1F` [Example 147, 1,1-dimethylethyl {1-[8-(2,6-difluorophenyl)-4-(2-methyl-5-{[(phenylmethyl)amino]carbonyl}phenyl)-7-oxo-5,6,7,8-tetrahydropyrimido[4,5-d]pyrimidin-2-yl]-4-piperidinyl}methylcarbamate], the melting point is 146 to 150 °C (dec.).

In the case of `Cc1ccc(C(=O)NCc2ccccc2)cc1-c1nc(NC2CC(C)(C)NC(C)(C)C2)nc2c1CNC(=O)N2c1c(F)cccc1F` [Example 16, 3-{8-(2,6-Difluorophenyl)-7-oxo-2-[(2,2,6,6-tetramethyl-4-piperidinyl)amino]-5,6,7,8-tetrahydropyrimido[4,5-d]pyrimidin-4-yl}-4-methyl-N-(phenylmethyl)benzamide], the melting point is 160 to 165 °C (dec.).

As for `CNC(=O)c1ccc(C)c(-c2nc(NCCN(C)C)nc3c2CNC(=O)N3c2c(F)cccc2F)c1` [Example 163(c), 3-(8-(2,6-difluorophenyl)-2-{[2-(dimethylamino)ethyl]amino}-7-oxo-5,6,7,8-tetrahydropyrimido[4,5-d]-pyrimidin-4-yl)-N,4-dimethylbenzamide], the melting point is 155 to 158 °C (dec.). The “active in the assay” value on Recombinant human p38α is recorded as “active”.

`CNc1nc(-c2cc(NC(=O)c3ccsc3)ccc2C)c2c(n1)N(c1c(F)cccc1F)C(=O)NC2` [Example 14, N-{3-[8-(2,6-difluorophenyl)-2-(methylamino)-7-oxo-5,6,7,8-tetrahydropyrimido[4,5-d]pyrimidin-4-yl]-4-methylphenyl}-3-thiophenecarboxamide]: the melting point was 203 to 207 °C (dec.).

For the compound `CCOc1nc(-c2cc(NC(=O)c3ccsc3)ccc2C)c2c(n1)N(c1c(F)cccc1F)C(=O)NC2` [Example 13], the melting point is 199 to 202 °C (dec.).

Consider `Cc1ccc(C(=O)NCc2ccccc2)cc1-c1nc(N2CCC(N)CC2)nc2c1CNC(=O)N2c1c(F)cccc1F` [15(c), 3-[2-(4-Amino-1-piperidinyl)-8-(2,6-difluorophenyl)-7-oxo-5,6,7,8-tetrahydropyrimido[4,5-d]pyrimidin-4-yl]-4-methyl-N-(phenylmethyl)benzamide], for which the melting point was 210 to 266 °C (dec.). The “active in the assay” value on Recombinant human p38α is on record as “active”.

For the compound `CCCCN(CCCC)CCCNc1nc(-c2cc(C(=O)NC)ccc2C)c2c(n1)N(c1c(F)cccc1F)C(=O)NC2` [Example 171, 3-[2-{[3-(dibutylamino)propyl]amino}-8-(2,6-difluorophenyl)-7-oxo-5,6,7,8-tetrahydropyrimido[4,5-d]pyrimidin-4-yl]-N,4-dimethylbenzamide], the melting point was 112 to 115 °C.

For `COc1nc(-c2cc(NC(=O)c3ccsc3)ccc2C)c2c(n1)N(c1c(F)cccc1F)C(=O)NC2` [10(e), N-{3-[8-(2,6-difluorophenyl)-2-(methyloxy)-7-oxo-5,6,7,8-tetrahydropyrimido-[4,5-d]pyrimidin-4-yl]-4-methylphenyl}-3-thiophenecarboxamide], the melting point was 225 to 228 °C (dec.). In addition, the “active in the assay” value on Recombinant human p38α is given as “active”.

Turning to `CNCCNc1nc(-c2cc(C(=O)NCC3CC3)ccc2C)c2c(n1)N(c1c(F)cccc1F)C(=O)NC2` [Example 5, N-(Cyclopropylmethyl)-3-(8-(2,6-difluorophenyl)-2-{[2-(methylamino)ethyl]amino}-7-oxo-5,6,7,8-tetrahydropyrimido[4,5-d]pyrimidin-4-yl)-4-methylbenzamide], the concentration for half-maximal inhibition (IC50) in series [2] (not more than 50% inhibition at 100 nM) is greater than 100 nM. Further, at Recombinant human p38α, the “active in the assay” value is listed as “active”.

Consider `Cc1ccc(C(=O)NCc2ccccc2)cc1-c1nc(NC2CCN(C)CC2)nc2c1CNC(=O)N2c1c(F)cccc1F` [Example 22, 3-[8-(2,6-Difluorophenyl)-2-[(1-methyl-4-piperidinyl)amino]-7-oxo-5,6,7,8-tetrahydropyrimido[4′-d]pyrimidin-4-yl]-4-methyl-N-(phenylmethyl)benzamide], for which the melting point is 152 to 154 °C (dec.). Besides, the “active in the assay” value on Recombinant human p38α is reported as “active”.

As for `Cc1ccc(C(=O)NCc2ccccc2)cc1-c1nc(NCCNC(C)C)nc2c1CNC(=O)N2c1c(F)cccc1F` [Example 20, 3-[8-(2,6-Difluorophenyl)-2-({2-[(1-methylethyl)amino]ethyl}amino)-7-oxo-5,6,7,8-tetrahydropyrimido[4,5-d]pyrimidin-4-yl]-4-methyl-N-(phenylmethyl)benzamide], the melting point was in the range of 133 to 137 °C. Further, the “active in the assay” value at Recombinant human p38α is “active”.

As to `CNC(=O)c1ccc(C)c(-c2nc(NCCCNC(C)C)nc3c2CNC(=O)N3c2c(F)cccc2F)c1` [Example 168, 3-[8-(2,6-difluorophenyl)-2-({3-[(1-methylethyl)amino]propyl}amino)-7-oxo-5,6,7,8-tetrahydropyrimido[4,5-d]pyrimidin-4-yl]-N,4-dimethylbenzamide], the melting point is 153 to 157 °C (dec.).

By melting point is commonly meant the temperature, or range, at which the solid turns liquid. A word on the IC50: it is the concentration that inhibits the measured activity by half.
